Measurements: patent US20070032469A1, “Tricyclic benzimidazoles and their use as metabotropic glutamate receptor modulators” (AstraZeneca AB, priority 2005, published 2007)

Each compound was assayed against T1, human mGluR2 (Homo sapiens, UniProt Q14416) (assay: mGluR2 potentiator assays described herein (FLIPR calcium mobilization in HEK 293 cells expressing chimeric mGluR2/CaR, or [35S]-GTPγS binding with CHO membranes)). Conditions: active in the assays described herein; which assay (FLIPR or GTPγS) is not stated.
T1 construct: fused on or other part: If FLIPR: the intracellular domain of the human calcium receptor (CASR, P41180) in place of mGluR2's own, and the promiscuous chimeric G protein Gaqi5 fused on; If GTPgammaS: nothing
T1 sequence (Q14416 19-819 limits assumed): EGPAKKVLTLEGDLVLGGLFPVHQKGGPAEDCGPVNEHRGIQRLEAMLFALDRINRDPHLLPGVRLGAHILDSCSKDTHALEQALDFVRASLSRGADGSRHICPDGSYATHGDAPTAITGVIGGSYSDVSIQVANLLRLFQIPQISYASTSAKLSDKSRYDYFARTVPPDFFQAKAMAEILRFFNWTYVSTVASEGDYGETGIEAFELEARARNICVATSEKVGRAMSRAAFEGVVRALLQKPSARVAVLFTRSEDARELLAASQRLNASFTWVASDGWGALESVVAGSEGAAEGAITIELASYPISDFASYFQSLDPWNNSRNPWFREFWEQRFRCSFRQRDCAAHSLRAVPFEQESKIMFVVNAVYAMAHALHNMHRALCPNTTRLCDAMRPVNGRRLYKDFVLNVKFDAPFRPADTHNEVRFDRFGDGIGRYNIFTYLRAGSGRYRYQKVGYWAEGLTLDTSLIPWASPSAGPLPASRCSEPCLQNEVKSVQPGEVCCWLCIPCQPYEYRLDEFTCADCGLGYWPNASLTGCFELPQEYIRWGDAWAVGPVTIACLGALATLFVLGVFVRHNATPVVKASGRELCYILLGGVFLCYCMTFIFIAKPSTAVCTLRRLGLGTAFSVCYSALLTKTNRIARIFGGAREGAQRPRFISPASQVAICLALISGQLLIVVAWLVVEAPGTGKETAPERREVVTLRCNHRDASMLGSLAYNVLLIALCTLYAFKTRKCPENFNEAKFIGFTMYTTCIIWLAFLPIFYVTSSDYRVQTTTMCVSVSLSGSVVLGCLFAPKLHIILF
Format: cell-based
From the text: The pharmacological properties of the compounds of the invention can be analyzed using standard assays for functional activity. Examples of glutamate receptor assays are well known in the art as described in, for example, Aramori et al., 1992, Neuron, 8:757; Tanabe et al., 1992, Neuron, 8:169; Miller et al., 1995, J. Neuroscience, 15:6103; Balazs, et al., 1997, J. Neurochemistry, 1997,69:151. The methodology described in these publications is incorporated herein by reference. Conveniently, the compounds of the invention can be studied by means of an assay that measures the mobilization of intracellular calcium, [Ca^2+]i in cells expressing mGluR2.
Fluorometric Imaging Plate Reader (FLIPR) analysis was used to detect allosteric activators of mGluR2 via calcium mobilization. A clonal HEK 293 cell line expressing a chimeric mGluR2/CaR construct comprising the extracellular and transmembrane domains of human mGluR2 and the intracellular domain of the human calcium receptor, fused to the promiscuous chimeric protein Gaqi5 was used. […] At 24-hours prior to analysis, the cells were trypsinized and plated in DMEM at 100,000 cells/well in black sided, clear-bottom, collagen I coated, 96-well plates. The plates were incubated under 5% CO2 at 37° C. overnight. Cells were loaded with 6 μM fluo-3 acetoxymethylester (Molecular Probes, Eugene Oreg.) for 60 min. at room temperature. All assays were performed in a buffer containing 126 mM NaCl, 5 mM KCl, 1 mM MgCl2, 1 mM CaCl2, 20 mM Hepes, 0.06 μM DCG-IV (a Group II mGluR selective agonist), supplemented with 1.0 mg/ml D-glucose and 1.0 mg/ml BSA fraction IV (pH 7.4).
FLIPR experiments were done using a laser setting of 0.8 W and a 0.4 second CCD camera shutter speed. Extracellular fluo-3 was washed off and cells were maintained in 160 μL of buffer and placed in the FLIPR. An addition of test compound (0.01 μM to 30 μM in duplicate) was made after 10 seconds of baseline fluorescent readings were recorded on FLIPR. Fluorescent signals were then recorded for an additional 75 seconds at which point a second addition of DCG-IV (0.2 μM) was made and fluorescent signals were recorded for an additional 65 seconds. Fluorescent signals were measured as the peak height of the response within the sample period. Data was analyzed using Assay Explorer, and EC50 and Emax values (relative to maximum DCG-IV effect) were calculated using a four parameter logistic equation.
A [^35S]-GTPγS binding assay was used to functionally assay mGluR2 receptor activation. The allosteric activator activity of compounds at the human mGluR2 receptor was measured using a [^35S]-GTPγS binding assay with membranes prepared from CHO cells which stably express the human mGluR2. The assay is based upon the principle that agonists bind to G-protein coupled receptors to stimulate GDP-GTP exchange at the G-protein. Since [^35S]-GTPγS is a non-hydrolyzable GTP analog, it can be used to provide an index of GDP-GTP exchange and, thus, receptor activation. The GTPγS binding assay therefore provides a quantitative measure of receptor activation.
Membranes were prepared from CHO cells stably transfected with human mGluR2. […] The amount of radioactivity bound was determined by counting plates on the Packard TopCount. […]

| SMILES | EC50 [nM] |
| --- | --- |
| CC1CCc2cc(F)cc3nc(CN4CC=C(c5ccc(OC(F)(F)F)cc5)CC4)n1c23 (centres unmarked) [Example 26.65, 8-fluoro-4-methyl-2-{[4-(4-trifluoromethoxyphenyl)-3,6-dihydropyridin-1(2H)-yl]methyl}-5,6-dihydro-4H-imidazo[4,5,1-ij]quinoline] | 80 |
| CC1CCc2cc(F)cc3nc(CN4CCC(Oc5ccccc5Cl)CC4)n1c23 (centres unmarked) [Example 26.55, 8-fluoro-4-methyl-2-[4-(2-chlorophenoxy)-piperidin-1-ylmethyl]-5,6-dihydro-4H-imidazo[4,5,1-ij]quinoline] | 370 |
| CC1CCc2cc(F)cc3nc(CN4CCN(c5ccc(F)cc5)CC4)n1c23 (centres unmarked) [Example 26.56, 8-fluoro-4-methyl-2-{[4(4-fluorophenyl)piperizin-1-yl]methyl}-5,6-dihydro-4H-imidazo[4,5,1-ij]quinoline] | 1580 |
| Fc1ccc(C2CCN(Cc3nc4cccc5c4n3CCO5)CC2)cc1 [Example 26.69] | 230 |
| O=C1CCN2C(CN3CCC(c4ccc(F)cc4)CC3)=NC3C=C(F)C=C1C32 (centres unmarked) [Example 28.1, 8-Fluoro-2-[4-(4-fluoro-phenyl)-piperidin-1-ylmethyl]-4,5,9a,9b-tetrahydroimidazo[4,5,1-ij]quinolin-6-one] | 1110 |
